Earlier results in patent US20230364026A1, “[…] NANOPARTICLE FORMULATIONS OF CANNABINOIDS AND C[…] WITH REDUCED OSTWALD RIPENING FOR ORAL, INHALATION, NASAL AND […] DELIVERY” (Luminus Biosciences, Inc., priority 2020, published 2023).

How the values were obtained:
[1] = pH values ranging from 1.2 to 7.0
[2] = administered orally, human gastrointestinal tract
[3] = self-experiment, compared to THC

Row | SMILES | solubility in water [1] | oral absorption [2] | duration of effects in humans [3] [h]
1 | CCCCCCC(C)(C)c1cc(O)c2c(c1)OC(C)(C)C1CCC(=O)CC21 (racemic) [Nabilone, (±)-trans-3-(1,1-dimethylheptyl)-6,6a,7,8,10,10a-hexahydro-1-hydroxy-6-6-dimethyl-9H-dibenzo[b,d] pyran-9-one] | less than 0.5 mg/L | completely absorbed | 
2 | CCCCCCCC(C)(C)c1ccc([C@H]2CCC[C@@H](O)C2)c(O)c1 [CP 47,497-C8] |  |  | 5 to 6
3 | CCCCCn1cc(C(=O)c2cccc3ccccc23)c2ccccc21 [JWH-018] |  |  | 1 to 2
